The supplement of paper PMC10307832

These cell lines were tested with Cc1ccc2nc(NCCN)c3ncc(C)n3c2c1 + Nc1nc2[nH]cc(CCc3ccc(C(=O)N[C@@H](CCC(=O)O)C(=O)O)cc3)c2c(=O)[nH]1 [Pemetrexed] (partner 0.2 µM) (assay: relative viability (nuclei count vs DMSO), 5 days (fraction); higher = more cells survive). Details: first compound 0.04 µM.
Outline: (§1)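 A single step with final 0.05% Triton X-100, 1% formaldehyde and 1 ug/ml Hoechst fixed the cells and stained nuclei 5 days after treatment. Lung cancer cell lines in 1536-well plates had been treated by pin tool the day after seeding with one drug alone or a fixed anchor-drug dose plus five library-drug doses (not always all listed) in √10 steps, and nuclei were counted on 4× images. Relative viability is the ratio of nuclei in treated wells to nuclei in vehicle wells, taken as the median of duplicate plates.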

In order of falling relative viability:
1. PC-3 [JPC-3]  1.21
2. NCI-H650  0.999
3. RERF-LC-KJ  0.489
4. NCI-H1755  0.446
5. EKVX  0.394
6. NCI-H1975  0.309
7. NCI-H1437  0.304
8. LC-2-ad  0.303
9. NCI-H2023  0.254
10. HCC-15  0.233
11. PC-14  0.135

Same assay, conditions: first compound 0.1265 µM

In order of rising relative viability:
1. PC-14  0.14
2. HCC-15  0.203
3. NCI-H2023  0.241
4. LC-2-ad  0.276
5. NCI-H1975  0.29
6. NCI-H1437  0.312
7. EKVX  0.404
8. NCI-H1755  0.408
9. RERF-LC-KJ  0.474
10. NCI-H650  0.976
11. PC-3 [JPC-3]  1.03

Same assay, conditions: first compound 0.4 µM

In order of falling relative viability:
1. PC-3 [JPC-3]  1.1
2. NCI-H650  0.827
3. RERF-LC-KJ  0.435
4. NCI-H1755  0.411
5. EKVX  0.387
6. NCI-H1437  0.332
7. NCI-H1975  0.3
8. LC-2-ad  0.268
9. NCI-H2023  0.235
10. HCC-15  0.223
11. PC-14  0.157

Same assay, conditions: first compound 1.265 µM

In order of falling relative viability:
1. NCI-H650  1.01
2. PC-3 [JPC-3]  0.987
3. NCI-H2023  0.503
4. RERF-LC-KJ  0.485
5. NCI-H1755  0.437
6. EKVX  0.36
7. NCI-H1975  0.313
8. NCI-H1437  0.296
9. LC-2-ad  0.275
10. HCC-15  0.252
11. PC-14  0.15

Same assay, conditions: first compound 4 µM

In order of falling relative viability:
1. PC-3 [JPC-3]  1.09
2. NCI-H650  0.851
3. RERF-LC-KJ  0.518
4. NCI-H1755  0.456
5. NCI-H1437  0.35
6. NCI-H1975  0.324
7. EKVX  0.313
8. LC-2-ad  0.291
9. HCC-15  0.236
10. NCI-H2023  0.171
11. PC-14  0.151

These cell lines were tested with O=C(/C=C/c1ccccc1)NC(NC(=S)Nc1cccc2cccnc12)C(Cl)(Cl)Cl [Salubrinal] + CC(C)C[C@H](NC(=O)[C@H](Cc1ccccc1)NC(=O)c1cnccn1)B(O)O [Bortezomib] (partner 0.002 µM) in the same assay as above. Details: first compound 0.08 µM.
Outline: as §1

In order of rising relative viability:
1. NCI-H1975  0.419
2. NCI-H1437  0.667
3. PC-3 [JPC-3]  0.775
4. NCI-H650  0.877
5. PC-14  0.94
6. LC-2-ad  0.992
7. NCI-H1755  1.06
8. HCC-15  1.13
9. EKVX  1.14
10. NCI-H2023  1.2
11. RERF-LC-KJ  1.29

Same assay, conditions: first compound 0.253 µM

In order of rising relative viability:
1. NCI-H1975  0.362
2. NCI-H1437  0.474
3. PC-14  0.639
4. PC-3 [JPC-3]  0.718
5. NCI-H650  0.724
6. HCC-15  0.804
7. EKVX  0.821
8. LC-2-ad  0.92
9. NCI-H1755  0.968
10. RERF-LC-KJ  0.984
11. NCI-H2023  1.03

Same assay, conditions: first compound 0.8 µM

In order of falling relative viability:
1. RERF-LC-KJ  1.24
2. NCI-H650  1.23
3. EKVX  1.17
4. LC-2-ad  1.16
5. HCC-15  1.14
6. NCI-H1755  1.05
7. PC-14  0.979
8. NCI-H2023  0.967
9. PC-3 [JPC-3]  0.89
10. NCI-H1437  0.68
11. NCI-H1975  0.353

Same assay, conditions: first compound 2.53 µM

In order of rising relative viability:
1. NCI-H1975  0.344
2. NCI-H1437  0.535
3. PC-3 [JPC-3]  0.863
4. NCI-H650  0.997
5. NCI-H1755  1
6. PC-14  1
7. LC-2-ad  1
8. NCI-H2023  1.02
9. RERF-LC-KJ  1.03
10. EKVX  1.06
11. HCC-15  1.15

Same assay, conditions: first compound 8 µM

In order of falling relative viability:
1. RERF-LC-KJ  1.15
2. EKVX  1.02
3. LC-2-ad  1.02
4. HCC-15  0.997
5. NCI-H1755  0.945
6. PC-14  0.874
7. NCI-H2023  0.858
8. NCI-H650  0.817
9. PC-3 [JPC-3]  0.75
10. NCI-H1437  0.465
11. NCI-H1975  0.355

What follows are cell lines tested with O=C(/C=C/c1ccccc1)NC(NC(=S)Nc1cccc2cccnc12)C(Cl)(Cl)Cl [Salubrinal] + Cc1nc(Nc2ncc(C(=O)Nc3c(C)cccc3Cl)s2)cc(N2CCN(CCO)CC2)n1 [Dasatinib] (partner 0.075 µM) in the same assay as above. Details: first compound 0.08 µM.
Outline: as §1

In order of falling relative viability:
1. PC-3 [JPC-3]  1.14
2. RERF-LC-KJ  0.928
3. HCC-15  0.723
4. NCI-H2023  0.707
5. EKVX  0.635
6. LC-2-ad  0.543
7. NCI-H1755  0.443
8. NCI-H650  0.425
9. NCI-H1437  0.406
10. NCI-H1975  0.363
11. PC-14  0.313

Same assay, conditions: first compound 0.253 µM

In order of rising relative viability:
1. PC-14  0.252
2. LC-2-ad  0.354
3. NCI-H1975  0.369
4. NCI-H1437  0.42
5. NCI-H1755  0.444
6. NCI-H650  0.462
7. NCI-H2023  0.489
8. EKVX  0.538
9. HCC-15  0.586
10. PC-3 [JPC-3]  0.762
11. RERF-LC-KJ  0.771

Same assay, conditions: first compound 0.8 µM

In order of falling relative viability:
1. LC-2-ad  1.11
2. PC-3 [JPC-3]  1.1
3. RERF-LC-KJ  0.92
4. HCC-15  0.701
5. NCI-H2023  0.671
6. EKVX  0.552
7. NCI-H1437  0.487
8. NCI-H650  0.462
9. NCI-H1755  0.45
10. NCI-H1975  0.376
11. PC-14  0.264

Same assay, conditions: first compound 2.53 µM

In order of rising relative viability:
1. PC-14  0.203
2. NCI-H1975  0.374
3. NCI-H1755  0.426
4. EKVX  0.469
5. NCI-H650  0.474
6. NCI-H1437  0.507
7. LC-2-ad  0.581
8. NCI-H2023  0.593
9. HCC-15  0.627
10. RERF-LC-KJ  0.827
11. PC-3 [JPC-3]  0.966

Same assay, conditions: first compound 8 µM

In order of falling relative viability:
1. PC-3 [JPC-3]  0.961
2. RERF-LC-KJ  0.634
3. HCC-15  0.498
4. LC-2-ad  0.448
5. EKVX  0.426
6. NCI-H650  0.413
7. NCI-H1755  0.344
8. NCI-H2023  0.343
9. NCI-H1975  0.3
10. NCI-H1437  0.243
11. PC-14  0.166

Each cell line was assayed with O=C(/C=C/c1ccccc1)NC(NC(=S)Nc1cccc2cccnc12)C(Cl)(Cl)Cl [Salubrinal] + O=C(CCCCCCC(=O)Nc1ccccc1)NO [Vorinostat] (partner 1 µM) in the same assay as above. Details: first compound 0.08 µM.
Outline: as §1

In order of falling relative viability:
1. HCC-15  0.952
2. NCI-H2023  0.9
3. NCI-H1437  0.841
4. NCI-H1755  0.815
5. RERF-LC-KJ  0.784
6. EKVX  0.769
7. NCI-H1975  0.742
8. LC-2-ad  0.735
9. PC-14  0.719
10. PC-3 [JPC-3]  0.713
11. NCI-H650  0.477

Same assay, conditions: first compound 0.253 µM

In order of falling relative viability:
1. NCI-H1755  0.831
2. NCI-H1437  0.787
3. HCC-15  0.784
4. PC-3 [JPC-3]  0.71
5. NCI-H2023  0.7
6. LC-2-ad  0.644
7. RERF-LC-KJ  0.642
8. NCI-H1975  0.616
9. EKVX  0.606
10. PC-14  0.585
11. NCI-H650  0.494

Same assay, conditions: first compound 0.8 µM

In order of falling relative viability:
1. PC-3 [JPC-3]  1.07
2. NCI-H1755  0.973
3. HCC-15  0.866
4. EKVX  0.863
5. NCI-H1437  0.812
6. NCI-H2023  0.746
7. RERF-LC-KJ  0.745
8. NCI-H1975  0.703
9. LC-2-ad  0.692
10. PC-14  0.672
11. NCI-H650  0.382

Same assay, conditions: first compound 2.53 µM

In order of falling relative viability:
1. PC-3 [JPC-3]  0.934
2. NCI-H1755  0.911
3. HCC-15  0.826
4. NCI-H1437  0.814
5. NCI-H2023  0.737
6. NCI-H1975  0.696
7. RERF-LC-KJ  0.673
8. EKVX  0.668
9. LC-2-ad  0.651
10. PC-14  0.645
11. NCI-H650  0.48

Same assay, conditions: first compound 8 µM

In order of falling relative viability:
1. HCC-15  0.804
2. PC-3 [JPC-3]  0.762
3. NCI-H1755  0.745
4. RERF-LC-KJ  0.721
5. NCI-H1437  0.714
6. NCI-H1975  0.676
7. EKVX  0.665
8. LC-2-ad  0.665
9. NCI-H2023  0.613
10. PC-14  0.5
11. NCI-H650  0.404
